Key:
[1] = MV4-11 xenograft model, tolerance (body weight, clinical signs); assay type: in vivo
Method: For routine monitoring, all study animals were monitored not only tumor growth but also behavior such as mobility, food and water consumption (by cage side checking only), body weight (BW), eye/hair matting and any other abnormal effect. Any mortality and/or abnormal clinical signs would be recorded.
Body weights of all animals were measured twice weekly throughout the study.

[2] = tested on: RPMI-8226; experiment: Oncology cell growth assay, RPMI-8226; assay type: cell-based, human; conditions: RPMI-8226, Multiple myeloma; gIC50, 72 hours
Method: (§1) Human cell lines were cultured in RPMI-1640 containing 10% fetal bovine serum, 1000 viable cells per well were plated in 384-well black flat bottom polystyrene plates (Greiner #781086) in 48 ˜I of culture media. All plates were placed at 5% CO2, 37° C. overnight. The following day one plate was harvested with CeliTiter-Glo (CTG, Promega #G7573) for a time equal to 0 (TO) measurement and compound (20 point titration from 14.7 uM to 7 pM) was added to the remaining plates. The final concentration of DMSO in all wells was 0.15%. Cells were incubated for 72 hours or the indicated time and each plate was developed with CeliTiterGlo reagent using a volume equivalent to the cell culture volume in the wells. Plates were shaken for approximately 2 minutes and chemiluminescent signal was read on the Analyst GT (Molecular Devices) or EnVision Plate Reader (Perkin Elmer).
(§2) Results are expressed as a percent of the TO and plotted against the compound concentration. The TO value was normalized to 100% and represents the number of cells at time of compound addition and the concentration response data were fit with a 4 parameter curve fit using XLfit software (model 205). […] The Ymin-TO value was determined by subtracting the TO value (100%) from the Ymin value (%) determined from the fit of the concentration response curve. […]

[3] = tested on: HL60; experiment: Oncology cell growth assay, HL60; assay type: cell-based, human; conditions: HL60, Promyelocytic leukemia; gIC50, 72 hours
Method: as §1, §2

[4] = tested on: AML2; experiment: Oncology cell growth assay, AML2; assay type: cell-based, human; conditions: AML2, AML (acute myeloid leukemia); gIC50, 72 hours
Method: as §1, §2

[5] = tested on: MM.1S; experiment: Oncology cell growth assay, MM.1S; assay type: cell-based, human; conditions: Multiple myeloma, gIC50, 72 hours
Method: as §1, §2

[6] = tested on: MV4-11 human AML xenograft; experiment: MV4-11 subcutaneous human AML xenograft model, efficacy; assay type: in vivo, NOD SCID mice; conditions: PO
Method: • Species & Strain: NOD SCID mice • Age: 7-8 week • Total Number: 60 mice plus 40% spare • Sex: Female • Body Weight: 18 to 22 g Animal Maintenance
Groups and treatments started when the mean tumor volume reached 138 mm^3. Based on the tumor volume, mice were randomly assigned to respective groups using a computer-generated randomization procedure.
Each mouse was inoculated subcutaneously on the right flank with MV4-11 tumor cells ([…]) in 0.1 ml of IMDM without serum for tumor development. The treatment started when the mean tumor size reached approximately 138 mm^3. Mice were randomized into groups.
During the course of study, the tumor size was measured twice a week in two dimensions using a caliper, and the volume was expressed in mm^3 using the formula: TV=a×b2/2 where a and b were the long and short diameters of the tumor, respectively. The tumor size was then used for T/C and TGI (tumor growth inhibition) values, which were indicators of anti-tumor effectiveness. T/C was calculated with the formula [(Td−T0)/(Cd−C0)]×100%, TGI is calculated with the formula [1−(Td−T0)/(Cd−C0)]×100%. Td and Cd were the mean tumor volumes (or median tumor volumes) of the treated and control animals, and T0 and C0 were the mean tumor volumes of the treated and control animals at the start of the experiment.

[7] = tested on: TEX; experiment: Oncology cell growth assay, TEX; assay type: cell-based, human; conditions: AML (acute myeloid leukemia), gIC50, 72 hours
Method: as §1, §2

[8] = tested on: MOLT4; experiment: Oncology cell growth assay, MOLT4; assay type: cell-based, human; conditions: MOLT4, acute lymphoid leukemia; gIC50, 72 hours
Method: as §1, §2

[9] = tested on: MV4-11; experiment: Oncology cell growth assay, MV4-11; assay type: cell-based, human; conditions: MV4-11, AML (acute myeloid) leukemia; gIC50, 72 hours
Method: as §1, §2

[10] = tested on: SK-OV-3; experiment: Oncology cell growth assay, SK-OV-3; assay type: cell-based, human; conditions: SK-OV-3, Ovarian cancer; gIC50, 72 hours
Method: as §1, §2

In the case of COc1cc2c(cc1-c1c(C)noc1C)ncc1nc(C3CCOCC3)n([C@H](C)COC(F)F)c12.Cl [2(g)·HCl], the body weight loss ([1]; 50 mg/kg PO, during the dosing period) is reported as 9.1%, the “body weight after dose suspension” value ([1]; 50 mg/kg, after a two days dose suspension on Day 8 and 9) is reported as “maintained or recovered” and the IC50 [2] is reported as 303 ± 6 nM. The IC50 [3] was 51 ± 3 nM, the IC50 [4] was 18 ± 2 nM and the IC50 [5] was 17 ± 4 nM. For the same molecule, the antitumor activity ([6]; 30 mg/kg and 50 mg/kg) was “significant antitumor activity”, the antitumor activity ([6]; low-dose 10 mg/kg, QD × 14) was “moderate antitumor activity” and the IC50 [7] was 23 ± 2 nM. The IC50 [8] was 1140 nM, the IC50 [9] was 14 ± 7 nM and the IC50 [10] was 2180 ± 1440 nM.

From US10259809B2, “Fluorinated imidazo[4,5-C]quinoline derivatives as inhibitors of bromodomain containing proteins” (Trillium Therapeutics Inc., priority 2015, dated 2019)
